From patent US20100004235A1, “Heterocyclic Substituted, Anellated Pyrazole Derivative and its uses” (BAYER HEALTHCARE AG, priority 2006, published 2010)

Legend:
vessel = settings: literature report; cited from earlier work
rabbit aorta rings = experiment: Vasorelaxant effect in vitro (rabbit aorta rings, phenylephrine-induced contraction); settings: Oryctolagus cuniculus; concentration reducing the height of the phenylephrine-induced contraction of rabbit aorta rings by 50%; 0.1% DMSO
Procedure: Rabbits are stunned by a blow to the neck and exsanguinated. The aorta is removed, freed from adhering tissue and divided into rings of a width of 1.5 mm. The rings are placed individually under an initial tension in 5 ml organ baths with Krebs-Henseleit solution which is at 37° C., is gassed with carbogen and has the following composition (in each case mM): NaCl: 119; KCl: 4.8; CaCl2×2H2O: 1; MgSO4×7H2O: 1.4; KH2PO4: 1.2; NaHCO3: 25; glucose: 10. The force of contraction is detected with Statham UC2 cells, amplified and digitized via A/D converters (DAS-1802 HC, Keithley Instruments, Munich) and recorded in parallel on chart recorders. Contractions are induced by cumulatively adding increasing concentrations of phenylephrine to the bath. After several control cycles, the substance to be investigated is added in each further run in increasing dosage, and the height of the contraction achieved is compared with the height of the contraction reached in the last preceding one. The concentration necessary to reduce the height of the control value by 50% is calculated from this (IC50 value). The standard application volume is 5 μl, the proportion of DMSO in the bath solution corresponds to 0.1%.

Structure (SMILES)	IC50 (rabbit aorta rings)	vessel-relaxing effect (vessel)
Fc1ccccc1Cn1nc(-c2nnn[nH]2)c2cccnc21 [1-(2-fluorobenzyl)-3-(1H-tetrazol-5-yl)-1H-pyrazolo[3,4-b]pyridine]		moderate
O=c1[nH]c(-c2nn(Cc3ccccc3F)c3ncccc23)no1 [Example 1, 3-[1-(2-Fluorobenzyl)-1H-pyrazolo[3,4-b]pyridin-3-yl]-1,2,4-oxadiazol-5(4H)-one]	2100 nM	
O=c1[nH]c(-c2nn(Cc3ccccc3F)c3ncccc23)ns1 [Example 2, 3-[1-(2-Fluorobenzyl)-1H-pyrazolo[3,4-b]pyridin-3-yl]-1,2,4-thiadiazol-5(4H)-one]	450 nM	
O=c1[nH]nc(-c2nn(Cc3ccccc3F)c3ncccc23)o1 [Example 3, 5-[1-(2-Fluorobenzyl)-1H-pyrazolo[3,4-b]pyridin-3-yl]-1,3,4-oxadiazol-2(3H)-one]	610 nM	
Fc1ccccc1Cn1nc(-c2noc(=S)[nH]2)c2cccnc21 [Example 7, 3-[1-(2-Fluorobenzyl)-1H-pyrazolo[3,4-b]pyridin-3-yl]-1,2,4-oxadiazole-5(4H)-thione]	1100 nM	

Continued, in another order:

IC50 (rabbit aorta rings)	Structure (SMILES)	vessel-relaxing effect (vessel)
610 nM	O=c1[nH]c(-c2nn(Cc3ccccc3F)c3ncccc23)nn1CC(F)(F)F [Example 18, 5-[1-(2-Fluorobenzyl)-1H-pyrazolo[3,4-b]pyridin-3-yl]-2-(2,2,2-trifluoroethyl)-2,4-dihydro-3H-1,2,4-triazol-3-one]	
2100 nM	CC(=O)OCCn1nc(-c2nn(Cc3ccccc3F)c3ncccc23)[nH]c1=O [Example 19, 2-{3-[1-(2-Fluorobenzyl)-1H-pyrazolo[3,4-b]pyridin-3-yl]-5-oxo-4,5-dihydro-1H-1,2,4-triazol-1-yl}ethyl acetate]	
